Key:
[1] = system: testicular steroidogensis; test: Inhibitory activity against testicular steroidogenesis in men in good health, single intranasal administration; type: in vivo; settings: for seric steroid/testosterone level on the fourth day after administration: fourth day (until 6th day)
Procedure: The inhibitory activity of [D Ser (tbu)^6 des GlyNH2^10 ] LH-RH ethylamide (described in German application Ser. No. 2,438,350) against testicular steroidogensis in men in good health was determined on men in good health aged 30 to 40 years. The said product was administered intranasally at a dose of 500 μg in a few drops of distilled water at 8 A.M. on the third day of the test. For 2 days prior to the treatment and for 6 days after the treatment, samples of blood were taken daily at 8 A.M., 3 P.M. and 10 P.M. On the day of administration of the LH--RH agonist, blood samples were taken at 11 A.M. and 6 P.M.
The seric concentrations of LH and FSH were measured by radioimmuno-logic dosages with double antibodies and the antibodies for measuring LH and FSH were furnished by the National Pituitary Agency of N.I.H. in Bethesda, Md. The seric concentrations of steroids was measured by radioimmuno-logic dosages in which one ml of serum was extracted with ether and the steroids were separated on a LH-20 column before measuring with radioimmuno-logic dosages. The radioimmuno-logic dosage results were determined by a program derived from model II of Rodbard et al [Second Karolinska Symposium on Research Methods in Reproductive Endrocinology, Diczfalusky Editor, Copenhague (1970), p. 79-103]. The statistical significance was determined by the "multiple level test" of Duncan-Kramer [Kramer, Biometrics, Vol 12 (1956), p. 307]. The results are shown in the graphs on sheet 1 of the Figures filed herewith.

[2] = system: ovarian steroidogenosis; test: Inhibitory activity on ovarian steroidogenesis in women with normal menstrual cycles; type: in vivo
Procedure: The inhibitory activity of [D Ser (tbu)^6 des GlyNH2^10 ] LH-RH ethylamide on ovarian steroidogenosis in women was determined on 6 women aged 26 to 35 years with normal and regular menstrual cycles and without prior endocrinal or gynecological problems. The study was conducted for 6 consecutive cycles consisting of 2 pretreatment cycles, 2 treatment cycles and 2 post-treatment cycles. Two drops of a solution containing 500 μg of [D Ser (tbu)^6 des GlyNH2^10 ] LH--RH ethylamide were deposited on each nostril at 8 A.M. and 5 P.M. of a day between the 4th and 9th day after the peak of LH-day 0. Daily blood samples were taken between 4 and 6 P.M. to measure seric levels of LH, FSH, progesterone and estradiol which were determined by radioimmuno-logictests with double antibodies. The antibodies to measure LH and FSH were furnished by the National Pituitory Agency of N.I.H. of Bethesda, Md.
Estradiol and progesterone were measured with highly specific antibodies developed against 7-(O-carboxymethyl)-oxime of estradiol and 12-(O-carboxymethyl)-oxime of progesterone, respectively [3H] 17β-estradiol and ^125 I-progesterone-12-[O-carboxymethyl)-oxime]used as tracers. The serum was extracted with benzene and the steroids were separated with a LH-20 column before the determination. The radioimmunological results were exploited by the program derived from model II of Rodbard and Lewald as in Example 1 and the statistical significance was measured by the multiple level test of Ducan-Kramer of Example 1. The results are shown in the graphs of sheets 3 to 5 of the Figures.

[3] = human, single intranasal dose 500 μg
[4] = 500 μg intranasal at 8 A.M. and 5 P.M. of one day in luteal phase, typical subject (sheet 3)

CCNC(=O)[C@@H]1CCCN1C(=O)[C@H](CCCNC(=N)N)NC(=O)[C@H](CC(C)C)NC(=O)[C@@H](COC(C)(C)C)NC(=O)[C@H](Cc1ccc(O)cc1)NC(=O)[C@H](CO)NC(=O)[C@H](Cc1c[nH]c2ccccc12)NC(=O)[C@H](Cc1c[nH]cn1)NC(=O)[C@@H]1CCC(=O)N1 [[D Ser (tbu)^6 des GlyNH2^10] LH-RH ethylamide]
duration of the drop of seric levels of testicular steroids (testosterone and precursors) [1, 3]: 3 days | seric steroid/testosterone level on the fourth day after administration [1, 3]: return to normal levels | seric steroid/testosterone level on the fourth day after administration ([1]; human, single intranasal dose 500 μg, listed as [D Ser (tbu)^6 des Gly NH2^10 ] LH-RH ethylamide): the level returned to normal | overall effect on testicular steroidogenesis ([1]; man, intranasal 500 μg): inhibition of testicular steroidogenesis | reduction of seric levels of progesterone compared to controls, first cycle of treatment [2, 4]: 13% | reduction of seric levels of progesterone compared to controls, second cycle of treatment [2, 4]: 34% | progesterone level of post-treatment cycles, pretreatment cycles = 100% ([2]; 12 cycles): 99% | progesterone level of treatment cycles, pretreatment cycles = 100% ([2]; 12 cycles): 46% | level of progesterone reduced by, compared to the controls ([2]; 12 cycles, sheet 5): 46% | course of seric progesterone level in the 2 cycles of treatment ([2]; sheet 4, return to normal for the 2 post-treatment cycles): accelerated diminution

Source: patent US4851386A, “Method of treating precocious puberty” (Roussel Uclaf, priority 1979, dated 1989)
